The record followed here is ChEMBL document CHEMBL3991601, “The target landscape of clinical kinase drugs” (Science, 2017).

The source made the active and inactive calls. Cut-off read from the data, not from the text of the source, for most assays here: actives have a measured Kd and inactives only a lower limit.

Assay [1] deals with T1, NUAK family SNF1-like kinase 2 (Homo sapiens, UniProt Q9H093).
T1 sequence (Q9H093 whole entry): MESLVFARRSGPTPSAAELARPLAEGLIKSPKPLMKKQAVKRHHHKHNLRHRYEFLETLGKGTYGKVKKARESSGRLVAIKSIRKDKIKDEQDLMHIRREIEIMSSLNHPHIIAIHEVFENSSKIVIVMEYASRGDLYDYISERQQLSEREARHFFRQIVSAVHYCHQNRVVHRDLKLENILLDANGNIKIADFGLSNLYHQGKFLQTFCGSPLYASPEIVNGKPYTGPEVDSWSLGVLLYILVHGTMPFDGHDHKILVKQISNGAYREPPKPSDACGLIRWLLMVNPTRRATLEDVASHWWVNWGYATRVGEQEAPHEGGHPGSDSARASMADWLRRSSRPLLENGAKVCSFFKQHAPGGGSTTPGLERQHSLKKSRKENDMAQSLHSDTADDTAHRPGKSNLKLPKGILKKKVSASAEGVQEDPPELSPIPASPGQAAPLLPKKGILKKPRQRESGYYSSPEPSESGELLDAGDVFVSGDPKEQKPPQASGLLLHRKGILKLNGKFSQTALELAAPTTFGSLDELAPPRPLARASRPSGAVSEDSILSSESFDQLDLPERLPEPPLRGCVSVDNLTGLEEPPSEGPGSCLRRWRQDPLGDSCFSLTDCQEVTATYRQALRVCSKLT

Assay [2] deals with Cyclin-dependent kinase 2 (Homo sapiens, UniProt P24941).
Assay [3] addresses Tyrosine-protein kinase Lyn (Homo sapiens, UniProt P07948).
Assay [4] concerns the target T2, Discoidin domain-containing receptor 2 (Homo sapiens, UniProt Q16832).
T2 sequence (Q16832 whole entry): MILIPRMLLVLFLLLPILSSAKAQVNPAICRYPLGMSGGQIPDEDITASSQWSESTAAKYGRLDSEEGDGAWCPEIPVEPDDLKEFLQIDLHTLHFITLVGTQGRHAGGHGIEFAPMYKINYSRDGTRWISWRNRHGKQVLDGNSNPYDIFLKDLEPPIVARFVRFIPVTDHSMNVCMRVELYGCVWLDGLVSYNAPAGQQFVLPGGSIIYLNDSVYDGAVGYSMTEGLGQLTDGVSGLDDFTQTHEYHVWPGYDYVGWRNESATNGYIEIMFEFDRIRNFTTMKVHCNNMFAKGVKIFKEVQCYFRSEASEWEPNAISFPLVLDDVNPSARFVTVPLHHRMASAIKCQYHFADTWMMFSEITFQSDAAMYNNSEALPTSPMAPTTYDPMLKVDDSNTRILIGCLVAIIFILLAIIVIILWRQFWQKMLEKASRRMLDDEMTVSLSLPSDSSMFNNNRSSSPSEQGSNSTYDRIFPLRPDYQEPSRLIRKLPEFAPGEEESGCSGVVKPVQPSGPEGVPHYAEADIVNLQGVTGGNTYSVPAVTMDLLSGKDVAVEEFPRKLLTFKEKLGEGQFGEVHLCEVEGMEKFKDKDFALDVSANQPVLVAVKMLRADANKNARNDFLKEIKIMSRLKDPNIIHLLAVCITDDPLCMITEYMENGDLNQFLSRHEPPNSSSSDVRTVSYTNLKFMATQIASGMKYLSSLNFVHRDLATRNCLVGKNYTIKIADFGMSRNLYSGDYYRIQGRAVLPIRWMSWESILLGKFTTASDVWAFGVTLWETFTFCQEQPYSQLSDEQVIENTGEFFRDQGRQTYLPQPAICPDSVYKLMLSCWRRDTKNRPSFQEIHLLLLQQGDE

The target of assay [5] is T3, Serine/threonine-protein kinase Nek3 (Homo sapiens, UniProt P51956).
T3 sequence (P51956 whole entry): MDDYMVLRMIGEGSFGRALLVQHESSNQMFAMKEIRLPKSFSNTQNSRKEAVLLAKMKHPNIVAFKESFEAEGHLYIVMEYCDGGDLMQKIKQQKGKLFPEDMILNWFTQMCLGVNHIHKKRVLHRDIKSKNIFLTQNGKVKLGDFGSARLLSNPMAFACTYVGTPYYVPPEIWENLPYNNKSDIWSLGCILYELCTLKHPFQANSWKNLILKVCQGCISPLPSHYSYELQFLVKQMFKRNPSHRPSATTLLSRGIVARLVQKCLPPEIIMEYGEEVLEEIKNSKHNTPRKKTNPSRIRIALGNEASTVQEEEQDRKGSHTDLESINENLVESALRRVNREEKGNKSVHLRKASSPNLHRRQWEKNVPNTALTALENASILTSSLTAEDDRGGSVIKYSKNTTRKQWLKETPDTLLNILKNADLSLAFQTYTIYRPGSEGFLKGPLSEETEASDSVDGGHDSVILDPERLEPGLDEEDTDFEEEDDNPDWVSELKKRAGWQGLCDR

Assay [6] has as its target T4, Heme oxygenase 2 (Homo sapiens, UniProt P30519).
T4 sequence (P30519 whole entry): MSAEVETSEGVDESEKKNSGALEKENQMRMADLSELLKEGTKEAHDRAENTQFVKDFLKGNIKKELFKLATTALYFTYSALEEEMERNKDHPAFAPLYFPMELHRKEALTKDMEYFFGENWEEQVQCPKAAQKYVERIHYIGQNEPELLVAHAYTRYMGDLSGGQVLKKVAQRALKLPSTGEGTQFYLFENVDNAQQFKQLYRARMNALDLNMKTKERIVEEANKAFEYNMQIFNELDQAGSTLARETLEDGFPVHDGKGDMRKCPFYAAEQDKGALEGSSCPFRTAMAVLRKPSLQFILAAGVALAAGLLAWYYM

Assay [7] concerns the target Obg-like ATPase 1 (Homo sapiens, UniProt Q9NTK5).
The target in assay [8] is Ribosomal protein S6 kinase alpha-4 (Homo sapiens, UniProt O75676).
Chain of Ribosomal protein S6 kinase alpha-4 (O75676 whole entry): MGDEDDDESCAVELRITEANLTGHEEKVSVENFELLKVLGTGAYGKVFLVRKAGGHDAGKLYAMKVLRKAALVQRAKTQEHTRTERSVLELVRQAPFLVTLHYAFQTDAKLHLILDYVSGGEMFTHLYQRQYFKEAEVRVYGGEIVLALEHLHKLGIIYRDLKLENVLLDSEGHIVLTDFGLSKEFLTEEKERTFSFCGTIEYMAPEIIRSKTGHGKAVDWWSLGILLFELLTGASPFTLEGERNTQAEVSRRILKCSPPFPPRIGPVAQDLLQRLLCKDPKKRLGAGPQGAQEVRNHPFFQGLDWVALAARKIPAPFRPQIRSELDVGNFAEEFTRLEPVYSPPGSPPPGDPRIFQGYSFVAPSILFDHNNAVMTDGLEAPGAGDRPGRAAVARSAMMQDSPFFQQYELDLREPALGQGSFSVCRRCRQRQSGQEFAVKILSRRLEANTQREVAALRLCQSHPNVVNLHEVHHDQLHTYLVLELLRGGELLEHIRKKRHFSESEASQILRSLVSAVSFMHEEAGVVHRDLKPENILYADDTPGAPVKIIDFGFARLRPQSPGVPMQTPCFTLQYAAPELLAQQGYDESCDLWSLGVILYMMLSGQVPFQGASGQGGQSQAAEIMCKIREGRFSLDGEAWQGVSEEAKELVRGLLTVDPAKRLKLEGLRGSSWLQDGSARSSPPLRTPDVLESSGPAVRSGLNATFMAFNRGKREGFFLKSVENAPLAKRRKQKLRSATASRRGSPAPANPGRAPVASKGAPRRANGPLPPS
Note: in the data inactive means no Kd found up to 30 µM.

Chain of Tyrosine-protein kinase Lyn (P07948 whole entry, the tested form may be a part): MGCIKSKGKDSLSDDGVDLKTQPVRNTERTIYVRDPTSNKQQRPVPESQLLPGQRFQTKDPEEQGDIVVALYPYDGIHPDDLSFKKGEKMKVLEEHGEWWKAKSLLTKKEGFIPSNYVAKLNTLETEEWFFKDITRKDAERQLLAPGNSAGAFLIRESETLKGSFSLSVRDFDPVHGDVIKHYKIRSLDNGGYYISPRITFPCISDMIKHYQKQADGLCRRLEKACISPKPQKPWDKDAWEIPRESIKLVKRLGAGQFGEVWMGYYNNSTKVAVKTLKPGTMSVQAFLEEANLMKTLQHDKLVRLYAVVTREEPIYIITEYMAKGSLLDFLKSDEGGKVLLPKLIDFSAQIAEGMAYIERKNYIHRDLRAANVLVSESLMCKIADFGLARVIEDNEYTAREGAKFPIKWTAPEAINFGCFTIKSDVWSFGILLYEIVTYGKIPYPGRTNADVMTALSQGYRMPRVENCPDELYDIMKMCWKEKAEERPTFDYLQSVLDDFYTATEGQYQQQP
Chain of Obg-like ATPase 1 (Q9NTK5 whole entry, looked up): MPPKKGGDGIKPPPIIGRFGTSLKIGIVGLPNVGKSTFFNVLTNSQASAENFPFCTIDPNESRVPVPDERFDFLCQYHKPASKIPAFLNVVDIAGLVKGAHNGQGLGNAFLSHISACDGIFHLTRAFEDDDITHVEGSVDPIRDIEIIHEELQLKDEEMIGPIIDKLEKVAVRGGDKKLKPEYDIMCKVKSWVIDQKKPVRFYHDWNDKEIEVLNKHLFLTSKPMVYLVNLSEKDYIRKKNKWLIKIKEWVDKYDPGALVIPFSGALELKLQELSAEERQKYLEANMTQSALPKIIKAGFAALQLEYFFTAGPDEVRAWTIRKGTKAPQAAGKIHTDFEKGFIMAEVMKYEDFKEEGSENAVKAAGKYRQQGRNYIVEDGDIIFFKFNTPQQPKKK

Usually Kd stands for the constant that tells how readily two partners part at equilibrium. With `Cc1c(Cn2c(C)nc3c(C(=O)O)cc(N4CCOCC4)cc32)cccc1C(F)(F)F` [GSK-2636771], the Kd in assay [1], in assay [2], in assay [3], in assay [4], in assay [5] and in assay [6] was > 30 µM (inactive) each time. The Kd in assay [7] and in assay [8] was > 30 µM (inactive) in each case.
`Cn1c(=O)c(F)c(Nc2ccc(I)cc2F)c2c(=O)n(C[C@@H](O)CO)cnc21` [TAK-733]: the Kd in assay [1], in assay [2], in assay [3], in assay [4], in assay [5] and in assay [6] was > 30 µM (inactive) each time. In addition, the Kd in assay [7] and in assay [8] was > 30 µM (inactive) in each case.
As to `S=C(NCc1ccc2c(c1)OCO2)N1CCN(c2ncnc3c2oc2ccccc23)CC1` [AMUVATINIB], the Kd in assay [1], in assay [2], in assay [3], in assay [4], in assay [5] and in assay [6] was > 30 µM (inactive) throughout. Further, the Kd in assay [7] and in assay [8] was > 30 µM (inactive) each time.
As to `C=CC(=O)Nc1cc(Nc2nccc(-c3cn(C)c4ccccc34)n2)c(OC)cc1N(C)CCN(C)C` [OSIMERTINIB], the Kd in assay [1], in assay [2], in assay [3], in assay [4], in assay [5] and in assay [6] was > 30 µM (inactive) each time. Moreover, the Kd in assay [7] and in assay [8] was > 30 µM (inactive) each time.
For the compound `Cn1cc(-c2[nH]c3cc(NC(=O)[C@H](N)C4CCCCC4)cc4c3c2C=NNC4=O)cn1`, the Kd was > 30 µM (inactive) in assay [1]; > 30 µM (inactive) in assay [2]; 0.331 µM (active) in assay [3]; > 30 µM (inactive) in assay [4]; > 30 µM (inactive) in assay [5]; > 30 µM (inactive) in assay [6]. Also, the Kd in assay [7] was > 30 µM (inactive); in assay [8], 1.05 µM (active).
Take `COCCN1CCN(Cc2ccc(-c3n[nH]c4c3C(=O)c3c(NC(=O)NN5CCOCC5)cccc3-4)cc2)CC1` [RGB-286638]: the Kd in assay [1] was > 30 µM (inactive); in assay [2] it was 0.072 µM (active); in assay [3], > 30 µM (inactive); in assay [4], > 30 µM (inactive); in assay [5], > 30 µM (inactive); in assay [6], > 30 µM (inactive). For the same compound, the Kd in assay [7] and in assay [8] was > 30 µM (inactive) in each case.
Consider `C[C@@H]1COC(Nc2ccc3ncnc(Nc4ccc(OCc5nccs5)c(Cl)c4)c3c2)=N1` [VARLITINIB], for which the Kd in assay [1], in assay [2], in assay [3], in assay [4], in assay [5] and in assay [6] was > 30 µM (inactive) in each case. Further, the Kd in assay [7] and in assay [8] was > 30 µM (inactive) throughout.
Consider `CCc1cc2c(cc1N1CCC(N3CCOCC3)CC1)C(C)(C)c1[nH]c3cc(C#N)ccc3c1C2=O` [ALECTINIB], for which the Kd in assay [1], in assay [2], in assay [3], in assay [4], in assay [5] and in assay [6] was > 30 µM (inactive) throughout. The Kd in assay [7] and in assay [8] was > 30 µM (inactive) in each case.
Take `Cc1c(NC(=O)OC[C@@H]2COCCN2)cn2ncnc(Nc3ccc4c(cnn4Cc4cccc(F)c4)c3)c12` [AC-480]: the Kd in assay [1], in assay [2], in assay [3], in assay [4], in assay [5] and in assay [6] was > 30 µM (inactive) throughout. For the same compound, the Kd in assay [7] and in assay [8] was > 30 µM (inactive) in each case.
Take `COc1cc(Nc2ncc(F)c(Nc3ccc4c(n3)N(COP(=O)(O)O)C(=O)C(C)(C)O4)n2)cc(OC)c1OC` [FOSTAMATINIB]: the Kd in assay [1], in assay [2], in assay [3], in assay [4], in assay [5] and in assay [6] was > 30 µM (inactive) in each case. Besides, the Kd in assay [7] and in assay [8] was > 30 µM (inactive) throughout.
As for `COc1cccc2cc(-c3nc([C@H]4CC[C@H](C(=O)O)CC4)n4ncnc(N)c34)[nH]c12` [OSI-027], the Kd in assay [1], in assay [2], in assay [3], in assay [4], in assay [5] and in assay [6] was > 30 µM (inactive) each time. The Kd in assay [7] and in assay [8] was > 30 µM (inactive) throughout.
In the case of `COc1cc2ncnc(Nc3ccc(F)c(Cl)c3)c2cc1NC(=O)/C=C/CN1CCCCC1` [DACOMITINIB ANHYDROUS], the Kd in assay [1], in assay [2], in assay [3], in assay [4], in assay [5] and in assay [6] was > 30 µM (inactive) throughout. The Kd in assay [7] and in assay [8] was > 30 µM (inactive) in each case.
`O=C(NOC[C@H](O)CO)c1ccc(F)c(F)c1Nc1ccc(I)cc1F` [MIRDAMETINIB]: the Kd in assay [1], in assay [2], in assay [3], in assay [4], in assay [5] and in assay [6] was > 30 µM (inactive) in each case. For the same compound, the Kd in assay [7] and in assay [8] was > 30 µM (inactive) each time.
